In patent US20220348870A1, “MATERIALS AND METHODS FOR MODIFYING THE ACTIVITY OF T CELLS” (Regents of the University of Minnesota, priority 2016, published 2022):

What was measured:
human tTreg [1] = assay: Foxp3 expression in expanded tTreg by flow cytometry; assay type: cell-based; details: for Foxp3 protein expression at the population level (% Foxp3+CD127−): 50 nM RNA, antagomir vs scrambled P<0.05
Experimental: (§1) tTreg and CD4+ T-cell cultures, generated as described herein, were frozen on days 14 and 7, respectively. Frozen cells were thawed and re-stimulated with anti-CD3/CD28 mAb-coated Dynabeads (Life Technologies, Carlsbad, Calif.) at 1:3 (cell to bead) ratios in the presence of recombinant IL-2. After 6 days, cultures were washed, re-suspended at 1×10^6 cells/ml, and nanoparticle-encapsulated RNA (50 nM; Scramble/Antagomir, Table 4: EXIQON, Woburn, Mass.) or TRAF6 inhibitor (8 μM, Darmstadt, Germany) or NF-kB inhibitor (PS-1145, 3 μM or 6 μM, Millennium Pharmaceuticals, Cambridge, Mass.) were added. DMSO were vehicles and used as controls. Cells were cultured another 2 days without further manipulation, and were harvested and assayed as listed. For some experiments, tTreg were kept in culture longer (as indicated) without further antagomir addition.
(§2) Human-specific antibodies used for flow cytometry included: CD4 (RPA-T4), CD8 (RPA-T8), CD25 (M-A251), CD45RA (HI100), IFN-gamma, IL-17a, annexin V (PE), 7-AAD (FITC) were purchased from BD Pharmingen, while Foxp3 (clone 249D) was obtained from BioLegend and Ki67 from eBioscience. For cytokine analysis, cells were pre-treated by PMA, ionomycin and brefeldin A for 6 hours and then stained by different cytokine antibodies. The annexin V (PE)/7-AAD (FITC) were applied to assess the apoptosis of tTreg. Acquisition was performed using a LSRII (BD Bioscience) and data were analyzed using FlowJo software (TreeStar) or IDEA (Admin). Nuclear localization of NF-kB was quantitated using an imaging flow cytometer (Imagestream, Amnis Corp; Seattle, Wash.) by intracellularly staining tTreg with anti-NF-kB (vendor) and, after washing, incubating with DRAQ5 for 15 minutes at 10 μM final concentration.

human tTreg [2] = assay: CFSE in vitro suppression assay (anti-CD3-mediated CD8+ T cell proliferation); assay type: cell-based
Experimental: The in vitro-suppressive capacity of expanded tTregs was assessed with a carboxy fluorescein succinimidyl ester (CFSE) inhibition assay as previously published (Hippen et al., Blood, 2008, 112(7):2847-57). Briefly, PBMNCs were purified, labeled with CFSE (Invitrogen), and stimulated with anti-CD3 mAb-coated beads (Dynal) ±cultured tTreg (1:2 to 1:32 tTregs/PBMNCs). On day 4, cells were stained with antibodies to CD4 and CD8, and suppression was determined from the Division Index (FlowJo, TreeStar). nTregs suppressed CD4 and CD8 T cell responses equivalently and only CD8 data are presented.

TRAF6 = TRAF6 mRNA (RT-PCR) and protein (flow cytometry) expression in tTreg; assay type: cell-based, human; details: expanded tTregs; for TRAF6 mRNA expression: RT-PCR
Experimental: as §1
as §2, with “For cytokine analysis, cells were pre-treated by PMA, ionomycin and brefeldin A for 6 hours and then stained by different cytokine antibodies. The annexin V (PE)/7-AAD (FITC) were applied to assess the apoptosis of tTreg.” left out
(§3) RNA was extracted from cell pellets using RNeasy Mini Kit with on-column DNase digestion (Qiagen; Hilden, Germany). cDNA synthesis was performed as described in the Expression Analysis Technical Manual (Affymetrix; Santa Clara, Calif.). GAPDH was used as control gene and related gene expression (Bcl-2, Mcl-1, Bcl-xL, BID and BAX; all from IDT, Coralville, Iowa), was analyzed on an Applied Biosystems 7500 Real-Time PCR System using Taqman Universal PCR Master Mix #4304437 and Assay on Demand primer/probe kits (Applied Biosystems; Waltham, Mass.). […]

human tTreg [3] = assay: qRT-PCR of NF-kB-responsive, anti- and pro-apoptotic genes in tTreg; assay type: cell-based
Experimental: RNA was extracted from cell pellets using RNeasy Mini Kit with on-column DNase digestion (Qiagen; Hilden, Germany). cDNA synthesis was performed as described in the Expression Analysis Technical Manual (Affymetrix; Santa Clara, Calif.). GAPDH was used as control gene and related gene expression (Bcl-2, Mcl-1, Bcl-xL, BID and BAX; all from IDT, Coralville, Iowa), was analyzed on an Applied Biosystems 7500 Real-Time PCR System using Taqman Universal PCR Master Mix #4304437 and Assay on Demand primer/probe kits (Applied Biosystems; Waltham, Mass.). For TLDA assay, TLDA v2.0 was performed on the 7900HT real-time PCR system (Applied Biosystems) according to the manufacturer's protocol. Average delta CT was acquired from the results for further analysis. PCR cycling conditions were performed as follows: 95° C. for 15 s and 60° C. for 1 min, 40 cycles and then 95° C. for 10 min. To normalize RNA input, Human RNU44 (Table 4) small RNA was used as an internal control.

control CD4 T-cells = assay: Foxp3 expression and suppressive function of control CD4 T-cells; assay type: cell-based, human; details: antagomir for final 2 days
Experimental: as §1, with “Cells were cultured another 2 days without further manipulation, and were harvested and assayed as listed. For some experiments, tTreg were kept in culture longer (as indicated) without further antagomir addition.” left out
as §2, with “For cytokine analysis, cells were pre-treated by PMA, ionomycin and brefeldin A for 6 hours and then stained by different cytokine antibodies. The annexin V (PE)/7-AAD (FITC) were applied to assess the apoptosis of tTreg.” left out, “concentration. […]” for “concentration.”

miR-146b-5p = miR-146b-5p knockdown in expanded tTreg by qRT-PCR; assay type: cell-based, human
Experimental: as §1, with “For some experiments, tTreg were kept in culture longer (as indicated) without further antagomir addition.” left out
as §3

human tTreg [4] = assay: Intracellular IFN-gamma assay after PMA/ionomycin re-stimulation; assay type: cell-based; details: final 2 days treatment
Experimental: as §2

human tTreg [5] = assay: tTreg expansion, viability (annexin V/7-AAD) and Ki-67 staining; assay type: cell-based
Experimental: as §1, §2

NF-kB = NF-kB nuclear localization by imaging flow cytometry; assay type: cell-based, human; details: tTreg, 2 days, vs untreated or scramble-treated
Experimental: as §2
TRAF6 is critical for TCR-mediated activation of NF-kB, and acts by ubiquitinylating TAK1, leading to activation of IKK and destruction of IkB, which allows NF-kB to translocate to the nucleus. To determine whether miR-146 antagomir enhanced NF-kB nuclear translocation, in vitro expanded tTreg were left untreated or treated for 2 days with scrambled RNA or miR-146b-5p antagomir, stained for CD4, NF-kB and DRAQ5 (a nuclear marker) and analyzed using imaging flow cytometry. […]

For `O=C(Nc1cc(Cl)cc2c1[nH]c1cnccc12)c1cccnc1` [PS1145, reference compound], the Foxp3 expression (human tTreg [1]; tTreg, NF-kB inhibitor 3 μM or 6 μM, final 2 days, vs DMSO) was “decreased Foxp3 expression in a dose-dependent manner” and the “in vitro suppressive function” value (human tTreg [2]; tTreg, NF-kB inhibitor, final 2 days) was “significantly decreased in vitro suppressive function”.
For “Scramble: nanoparticle-encapsulated scrambled control RNA, TAA CAC GTC TAT ACG CCC A (SEQ ID NO: 1) (TAACACGTCTATACGCCCA; nanoparticle-encapsulated, chemistry not given here) [reference compound]”, the “Foxp3 protein expression at the population level (% Foxp3+CD127−)” value (human tTreg [1]; tTreg, final 2 days) was 73.1%±4.6% and the “TRAF6 mRNA expression” value (TRAF6) was “no effect was observed”.
For “miR-146b-5p antagomir: nanoparticle-encapsulated antagomir RNA (EXIQON), AGCCTATGGAATTCAGTTCTC (SEQ ID NO: 2) (AGCCTATGGAATTCAGTTCTC; nanoparticle-encapsulated Exiqon antagomir, chemistry not given here)”, the Bcl-xL expression (human tTreg [3]; anti-apoptotic gene, tTreg) was “increased expression”, the Mcl-1 expression (human tTreg [3]; anti-apoptotic gene, tTreg) was “increased expression” and the c-myc expression increase (human tTreg [3]; over untreated or scramble-treated tTreg) was > 3 fold. For the same compound, the BAX expression (human tTreg [3]; pro-apoptotic gene, tTreg) was “decreased expression”, the BID expression (human tTreg [3]; pro-apoptotic gene, tTreg) was “decreased expression” and the “FoxP3 expression in control CD4 T-cells” value (control CD4 T-cells) was “no effect on FoxP3 expression”. The “suppressive function of control CD4 T-cells” value (control CD4 T-cells) was “no effect on FoxP3 expression or suppressive function”, the miR-146b expression reduced (miR-146b-5p; day 8 after a single antagomir treatment (not shown)) was 70% and the miR-146b-5p knockdown efficiency (miR-146b-5p; tTreg, nanoparticle-encapsulated antagomir 50 nM, 2 days, qRT-PCR) was > 95%. For the same compound, the “IFN-gamma expression in expanded tTregs” value (human tTreg [4]) was “expression was not affected”, the tTreg viability (human tTreg [5]; 2 days treatment, annexin V/7-AAD) was “increased viability” and the “Ki67 MFI level” value (human tTreg [5]; 2 days treatment, n=5) was “higher relative Ki67 MFI level”. For the same compound, the tTreg expansion (human tTreg [5]; day 8 post single treatment, vs untreated or scrambled RNA) was “expanded significantly more”, the tTreg expansion (human tTreg [5]; initial 2 day treatment period) was “no significant difference in expansion” and the Foxp3 expression (human tTreg [1]; day 8 after single treatment) was “maintained their higher Foxp3 expression”. The “Foxp3 protein expression at the population level (% Foxp3+CD127−)” value (human tTreg [1]; tTreg, final 2 days) was 85.5%±3.5%, the “Foxp3 protein expression at per-cell level” value (human tTreg [1]; tTreg, 2 days, compared to scrambled group) was “increased Foxp3 protein expression” and the “NF-kB/DRAQ5 similarity score (nuclear localization)” value (NF-kB) was “significantly higher similarity scores”. The suppressive function (human tTreg [2]; day 8 after single treatment) was “maintained their higher Foxp3 expression and suppressive function”, the “increase in efficacy of tTreg suppressive function” value (human tTreg [2]; tTreg:PBMC 1:8 to 1:32, antagomir-treated at 1:16 as suppressive as scramble-treated at 1:8) was ~2 fold and the “TRAF6 mRNA expression” value (TRAF6) was “significantly higher TRAF6 mRNA expression”. The TRAF6 protein expression (TRAF6; flow cytometry, vs untreated or scramble-treated) was “significantly enhanced TRAF6 protein expression”.
